Source: patent US20240392241A1, “METHOD FOR PRODUCING CELL MASS INCLUDING PITUITARY TISSUE AND CELL MASS” (SUMITOMO CHEMICAL COMPANY, LIMITED, priority 2021, published 2024)

Key:
Type in all cases: cell-based
[1] = system: cell mass derived from human iPS cell line 201B7; experiment: ACTH concentration in culture medium of cell masses by ELISA (Example 4); details: for ACTH concentration in the medium compared with JNK inhibitor non-addition conditions: 1 μM from day 0; for ACTH concentration in the medium vs non-addition condition: 3 μM
Description: In Example 4, according to step shown in FIG. 4A, a cell population including cells that constitute pituitary tissue was produced. Specifically, the culture supernatant of a cell mass derived from human iPS cell line 201B7 prepared by the method described in Example 3 was collected over time, and the amount of ACTH secreted per cell mass was measured. As a specific measurement method, cell masses containing pituitary tissue were prepared under four conditions: from day 0 to day 30 of differentiation induction, conditions in which the JNK inhibitor JNK—IN-8 was added at 1 μM, 3 μM, or 10 μM, and no addition control. […] Thereafter, the cell masses prepared by adding 1 μM or 3 μM of JNK—IN-8 and the non-addition control were suspension cultured in a 10 cm dish with 20 ml of medium, and half of the medium was replaced every 3 to 4 days. The culture supernatant was collected before replacement of a half-volume of the medium on days 61, 103, 152, and 201 of differentiation induction, and frozen at −150° C. When all samples were collected, the ACTH concentration in the recovered medium was measured by the ELISA method used in clinical testing (testing outsourced to SRL, Ltd.). Based on the obtained ACTH concentration data (pg/mL), the total number of cell masses at the time of sampling and the total amount of culture medium were corrected to the ACTH concentration under the conditions where 20 cell masses were cultured in 20 ml of medium, and shown in a graph. A similar experiment was performed twice.
As a result, the ACTH concentration in the medium was about 5 times as high on day 61 of differentiation induction, about 2 times as high on days 103 and 152 of differentiation induction, and about 1.3 times as high on day 201 of differentiation induction under the conditions in which 1 μM JNK—IN-8 was added from day 0 of differentiation induction, compared with the JNK inhibitor non-addition conditions. Under the conditions in which 3 μM JNK—IN-8 was added, the ACTH concentration in the medium was higher on days 61 and 103 of differentiation induction than that in the non-addition condition, but lower on days 152 and 201 of differentiation induction than that in the non-addition condition. From the above results, it was shown that the addition of a JNK inhibitor improves the ACTH secretory capacity per cell mass in differentiation induction of pituitary tissue from pluripotent stem cells, and that the concentration of the JNK inhibitor to be added is preferably not more than 3 μM (FIG. 4B).

[2] = system: human iPS cells (201B7 strain); experiment: Immunostaining of Pitx1, Lhx3 and E-cadherin in cell aggregates on day 29 (Example 3); details: 1 μM from day 0
Description: In Example 3, according to step shown in FIG. 3A, a cell population including cells that constitute pituitary tissue was produced. Specifically, human iPS cells (201B7 strain, obtained from Kyoto University) were cultured under feeder-free conditions according to the method described in Scientific Reports, 4, 3594 (2014). As the feeder-free medium, StemFit medium was used and, as the feeder-free scaffold, Laminin 511-E8 was used.
The aforementioned subconfluent human iPS cells were subjected to cell dispersion treatment using TrypLE Select, and further dispersed to single cells by pipetting operation. Thereafter, the aforementioned […] dispersed into single cells were suspended in 100 μl of a serum-free medium at 9000 cells per well of a non-cell-adhesive 96-well culture plate, and suspension cultured under the conditions of 37° C., 5% CO2. […]
The aforementioned cell aggregates on the 29th day after the start of differentiation induction were each fixed with 4% para-formaldehyde, and cryosections were prepared. […] After the primary antibody reaction, detection was performed using a secondary antibody (manufactured by Life Technologies) fluorescence-labeled with Alexa488, 555, and 647. […]

[3] = system: human iPS cells (201B7 strain); experiment: Immunostaining of ACTH and E-cadherin in cell aggregates on day 103 (Example 7)
Description: According to the steps shown in FIG. 10A, suspension culturing was performed using human iPS cells (201B7 strain) in the same manner as in Example 4, and continued until day 103. Using the obtained cell aggregates, cryosections were prepared in the same manner as in Example 3. The obtained sections were subjected to immunostaining using anti-ACTH antibody (manufactured by Fitzgerald Industries) and anti-E-cadherin antibody (manufactured by Takara Bio Inc.), and the nucleus was stained with DAPI. […] The scale bar at the bottom right of FIG. 10B indicates 200 μm.

Q: `Cc1cc(NC(=O)c2cccc(NC(=O)/C=C/CN(C)C)c2)ccc1Nc1nccc(-c2cccnc2)n1` [JNK—IN-8, (E)-3-(4-(dimethylamino)but-2-enamido)-N-(3-methyl-4-((4-(pyridin-3-yl)pyrimidin-2-yl)amino)phenyl)benzamide] was tested. Which “ACTH concentration in the medium compared with JNK inhibitor non-addition conditions” value ([1]; day 61 of differentiation induction) did it give?
A: about 5 times

Q: What about the “ACTH concentration in the medium compared with JNK inhibitor non-addition conditions” value ([1]; day 201 of differentiation induction) of the same molecule?
A: about 1.3 times

Q: And the “ACTH concentration in the medium compared with JNK inhibitor non-addition conditions” value ([1]; days 103 and 152 of differentiation induction)?
A: about 2 times

Q: What about the “ACTH concentration in the medium vs non-addition condition” value ([1]; days 61 and 103 of differentiation induction) of the same molecule?
A: higher

Q: And the “ACTH concentration in the medium vs non-addition condition” value ([1]; days 152 and 201 of differentiation induction)?
A: lower

Q: What about the “state of cell mass” value ([1]; 10 μM added from day 0 to day 30 of differentiation induction) of the same molecule?
A: collapse of cell mass

Q: What about the “number of cells positive for Pitx1 and Lhx3 vs non-addition control” value [2] of the same molecule?
A: higher

Q: And the “proportion of the surface of the cell mass covered with E-Cadherin-positive epithelial tissue vs non-addition control” value [2]?
A: higher

Q: And the “proportion of ACTH-positive cells in the entire cell aggregate” value ([3]; JNKi(+), mean±SEM, n=8-12)?
A: 42.2±4.4 % of total cells

Q: What about the “proportion of E-cadherin-positive cells in the layer covering the surface of cell aggregates vs non-addition control” value ([3]; JNK—IN-8 added) of the same molecule?
A: higher
